In the assay the target is T1, human CB2 receptors (Homo sapiens, UniProt P34972).
T1 construct: expressed in transfected cells; membranes used
Description: Affinity for the human CB2 cannabinoid receptors: inhibition of [3H]-CP55940 binding to transfected CHO-K1 cell membranes. The following applies: [3H]-CP55940 1 nM, CHO-K1 membranes expressing human CB2, Cheng-Prusoff correction. On the procedure:
The affinity of the compounds of the invention for the human CB2 receptors is determined by measuring the inhibition of the binding of [^3H]-CP55940 to transfected CHO-K1 cell membrane preparations.
The cells are collected with 0.5 mM of EDTA and centrifuged at 500 g for 5 minutes at 4° C. The pellet is re-suspended in phosphate buffered saline medium (PBS) and centrifuged at 500 g for 5 minutes at 4° C. The pellet is re-suspended in a Tris 50 mM buffer medium at pH 7.4 and centrifuged at 500 g for 5 minutes at 4° C. The cells are lysed by sonication and centrifuged at 39,000 g for 10 minutes at 4° C. The pellet is re-suspended in the Tris 50 mM buffer medium at pH 7.4 and centrifuged at 50,000 g for 10 minutes at 4° C. The membranes obtained in this last pellet are stored at −80° C.
Measurement of the competitive inhibition of the binding of the [^3H]-CP55940 to the CB2 receptors is carried out in duplicate using 96-well polypropylene plates. The cell membranes (10 μg of proteins/well) are incubated with the [^3H]-CP55940 (1 nM) for 60 minutes at 25° C. in a Tris-HCl 50 mM buffer medium, pH 7.4, comprising 0.1% bovine serum albumin (BSA), 5 mM of MgCl2, and 50 μg/ml of bacitracin.
The filters are washed with Tris-HCl 50 mM buffer, pH 7.4 at 0-4° C. and the radioactivity present is determined using a counter (Packard Top Count).
The specific binding is obtained by subtracting the non-specific binding (determined in the presence of 0.1 μM of WIN55212-2 from the total binding). The data are analyzed by computer-assisted non-linear regression (MDL). For each test, a Cheng-Prusoff correction is made in order to convert the IC50 to the inhibition constant, Ki.
where [L] is the concentration of the radioligand used in the test and Kd is the radioligand equilibrium disassociation constant.

Where two headings read alike, the source gives them in different places.

As usually defined, the Ki is the equilibrium dissociation constant of an inhibitor or competing ligand from its target.

T1 sequence (P34972 whole entry): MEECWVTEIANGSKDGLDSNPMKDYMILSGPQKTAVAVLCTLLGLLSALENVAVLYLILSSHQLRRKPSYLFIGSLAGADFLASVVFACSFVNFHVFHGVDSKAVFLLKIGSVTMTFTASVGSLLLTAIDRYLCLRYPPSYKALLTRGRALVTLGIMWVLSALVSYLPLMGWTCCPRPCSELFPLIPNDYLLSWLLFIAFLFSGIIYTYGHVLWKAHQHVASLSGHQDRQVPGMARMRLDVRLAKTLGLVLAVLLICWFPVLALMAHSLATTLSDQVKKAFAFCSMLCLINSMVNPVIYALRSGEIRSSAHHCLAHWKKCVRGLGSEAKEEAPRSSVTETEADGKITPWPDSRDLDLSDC

`C=CCNC(=O)Nc1ccc(CCc2nc(-c3ccc4c(c3)C(C)(C)CCC4(C)C)co2)cc1` [Example 40]: the Ki by setting is: (read-out: Ki < 0.5 μM) < 0.5 µM; (read-out: Ki < 5 μM) < 5 µM. For `Cc1cc2c(cc1C(=O)OCCc1ccc(NC(=O)C3CCC3)cc1)CCCC2(C)C` [Example 36], in that order: < 0.5 µM and < 5 µM. On to `CC(C)(C)c1cc(-c2nc(Cc3ccc(/N=C(/N)c4cccs4)cc3)no2)cc(C(C)(C)C)c1` [Example 5], for which the Ki runs as follows: (read-out: Ki < 0.5 μM) < 0.5 µM; (read-out: Ki < 5 μM) < 5 µM. On the same counts, the results for `CC1(C)CCC(C)(C)c2cc(C(=O)OCCc3ccc(NC(=O)CC4CC4)cc3)ccc21` [Example 91] are < 0.5 µM and < 5 µM. Regarding `CC(C)NC(=O)Nc1ccc(CCOC(=O)c2ccc3c(c2)C(C)(C)CCC3(C)C)cc1` [Example 73], the Ki (read-out: Ki < 0.5 μM) was < 0.5 µM and the Ki (read-out: Ki < 5 μM) was < 5 µM. On the same counts, the results for `Cc1cc2c(cc1C(=O)OCCc1ccc(NC(=O)C3CCC3)cc1)C(C)(C)CC(C)C2(C)C` (stereo not shown) [Example 45] are < 0.5 µM and < 5 µM. On to `CCCNC(=O)Nc1ccc(CCc2nnc(-c3ccc4c(c3)C(C)(C)CCC4(C)C)s2)cc1` [Example 53], for which the Ki (read-out: Ki < 0.5 μM) is < 0.5 µM and the Ki (read-out: Ki < 5 μM) was < 5 µM.

With `CC1(C)CCC(C)(C)c2cc(-c3nnc(NCc4ccc(/N=C(/N)c5cccs5)cc4)o3)ccc21` [Example 28], the Ki (read-out: Ki < 5 μM) is < 5 µM. As to `CCS(=O)(=O)Nc1ccc(CCOC(=O)c2ccc3c(c2)C(C)(C)CCC3(C)C)cc1` [Example 70], the inhibition constant Ki (read-out: Ki < 0.5 μM) was < 0.5 µM and the Ki (read-out: Ki < 5 μM) was < 5 µM. For `Cc1cc2c(cc1C(=O)OCCc1ccc(NC(=O)C3CCC3)cc1)C(C)(C)CCC2(C)C` [Example 49], in that order: < 0.5 µM and < 5 µM. For `Cc1cc2c(cc1C(=O)OCCc1ccc(NC(=O)C3CCC3)cc1)C(C)(C)CCC2` [Example 35], in that order: < 0.5 µM and < 5 µM. Turning to `CC1(C)CCC(C)(C)c2cc(C(=O)OCc3ccc(C(=O)NC4CCC4)cc3)ccc21` [Example 3], the inhibition constant (Ki) (read-out: Ki < 0.5 μM) is < 0.5 µM and the Ki (read-out: Ki < 5 μM) is < 5 µM.

In the case of `O=C(OCCc1ccc(NC(=O)C2CCC2)cc1)c1ccc2c(c1)CCC2` [Example 11], the Ki by setting is: (read-out: Ki < 0.5 μM) < 0.5 µM; (read-out: Ki < 5 μM) < 5 µM. For `CCCC(=O)Nc1ccc(CCOC(=O)c2ccc3c(c2)C(C)(C)CCC3(C)C)cc1` [Example 94], the Ki (read-out: Ki < 0.5 μM) is < 0.5 µM and the Ki (read-out: Ki < 5 μM) was < 5 µM.

Take `CCC(C)C(=O)Nc1ccc(CCOC(=O)c2ccc3c(c2)C(C)(C)CCC3(C)C)cc1` (stereo not shown) [Example 95]: the Ki is, setting by setting: (read-out: Ki < 0.5 μM) < 0.5 µM; (read-out: Ki < 5 μM) < 5 µM. Turning to `CC(C)(C)c1cc(-c2nnc(Cc3ccc(/N=C(/N)c4cccs4)cc3)o2)cc(C(C)(C)C)c1` [Example 2], the Ki is < 0.5 µM (read-out: Ki < 0.5 μM) and < 5 µM (read-out: Ki < 5 μM). With `CC(C)(C)NC(=O)Nc1ccc(CCOC(=O)c2ccc3c(c2)C(C)(C)CCC3(C)C)cc1` [Example 74], the Ki reads like this: (read-out: Ki < 0.5 μM) < 0.5 µM; (read-out: Ki < 5 μM) < 5 µM. On the same counts, the results for `C=CCNC(=O)Nc1ccc(CCc2nnc(-c3cc(C(C)(C)C)cc(C(C)(C)C)c3)s2)cc1` [Example 47] are < 0.5 µM and < 5 µM. On the same counts, the results for `CC(C)(C)c1cc(-c2nc(Cc3ccc(NC(=O)C4CCC4)cc3)no2)cc(C(C)(C)C)c1` [Example 19] are < 0.5 µM and < 5 µM.

As for `CC(C)CC(=O)Nc1ccc(CCOC(=O)c2ccc3c(c2)C(C)(C)CCC3(C)C)cc1` [Example 58], the inhibition constant (Ki) (read-out: Ki < 0.5 μM) is < 0.5 µM and the Ki (read-out: Ki < 5 μM) was < 5 µM.

As to `COCC(=O)Nc1ccc(CCOC(=O)c2ccc3c(c2)C(C)(C)CCC3(C)C)cc1` [Example 85], the inhibition constant Ki (read-out: Ki < 0.5 μM) was < 0.5 µM and the Ki (read-out: Ki < 5 μM) was < 5 µM. For the compound `CCCNC(=O)Nc1ccc(CCc2nnc(-c3cc(C(C)(C)C)cc(C(C)(C)C)c3)s2)cc1` [Example 48, N-(4-{2-[5-(3,5-di-tert-butylphenyl)-1,3,4-thiadiazol-2-yl]ethyl}phenyl)-N′-propylurea], the inhibition constant (Ki) runs as follows: (read-out: Ki < 0.5 μM) < 0.5 µM; (read-out: Ki < 5 μM) < 5 µM. As for `CC1(C)CCC(C)(C)c2cc(C(=O)OCCc3ccc(NC(=O)NCc4ccccc4)cc3)ccc21` [Example 84], the inhibition constant (Ki) was < 0.5 µM (read-out: Ki < 0.5 μM) and < 5 µM (read-out: Ki < 5 μM). Turning to `CC(C)(C)CC(=O)Nc1ccc(CCOC(=O)c2ccc3c(c2)C(C)(C)CCC3(C)C)cc1` [Example 59], the Ki (read-out: Ki < 0.5 μM) was < 0.5 µM and the Ki (read-out: Ki < 5 μM) was < 5 µM.

Take `C=CCNC(=O)Nc1ccc(CCOC(=O)c2ccc3c(c2)C(C)(C)CCC3(C)C)cc1` [Example 30]: the inhibition constant (Ki) (read-out: Ki < 0.5 μM) is < 0.5 µM and the Ki (read-out: Ki < 5 μM) is < 5 µM. As to `CC1(C)CCC(C)(C)c2cc(C(=O)OCCc3ccc(NC(=O)Cc4ccco4)cc3)ccc21` [Example 93], the Ki by setting is: (read-out: Ki < 0.5 μM) < 0.5 µM; (read-out: Ki < 5 μM) < 5 µM. On the same counts, the results for `CCCCNC(=O)Nc1ccc(CCOC(=O)c2ccc3c(c2)C(C)(C)CCC3(C)C)cc1` [Example 83] are < 0.5 µM and < 5 µM.

`CC(C)(C)c1cc(-c2nnc(CCc3ccc(NC(=O)C4CCC4)cc3)s2)cc(C(C)(C)C)c1` [Example 46]: the inhibition constant Ki is < 0.5 µM (read-out: Ki < 0.5 μM) and < 5 µM (read-out: Ki < 5 μM). On to `CC1(C)CC(C)(C)c2cc(C(=O)OCCc3ccc(NC(=O)C4CCC4)cc3)ccc21` [Example 37], for which the Ki reads like this: (read-out: Ki < 0.5 μM) < 0.5 µM; (read-out: Ki < 5 μM) < 5 µM. On the same counts, the results for `C=CC(=O)Nc1ccc(CCOC(=O)c2ccc3c(c2)C(C)(C)CCC3(C)C)cc1` [Example 61] are < 0.5 µM and < 5 µM. In the case of `CC1(C)CCC(C)(C)c2cc(C(=O)OCCc3ccc(NC(=O)C4CC4(C)C)cc3)ccc21` (stereo not shown) [Example 89], the inhibitory constant (Ki) runs as follows: (read-out: Ki < 0.5 μM) < 0.5 µM; (read-out: Ki < 5 μM) < 5 µM. For `CC1(C)CCC(C)(C)c2cc(C(=O)OCCc3ccc(NC(=O)NCc4ccco4)cc3)ccc21` [Example 75], in that order: < 0.5 µM and < 5 µM. In the case of `C=CCNC(=O)Nc1ccc(CNc2nnc(-c3ccc4c(c3)C(C)(C)CCC4(C)C)o2)cc1` [Example 26], the inhibition constant (Ki) by setting is: (read-out: Ki < 0.5 μM) < 0.5 µM; (read-out: Ki < 5 μM) < 5 µM.

In the case of `CCCNC(=O)Nc1ccc(CCc2nc(-c3ccc4c(c3)C(C)(C)CCC4(C)C)co2)cc1` [Example 41], the Ki runs as follows: (read-out: Ki < 0.5 μM) < 0.5 µM; (read-out: Ki < 5 μM) < 5 µM. For `CC1(C)CCC(C)(C)c2cc(-c3coc(CCc4ccc(NC(=O)C5CCC5)cc4)n3)ccc21` [Example 39, N-(4-{2-[4-(5,5,8,8-tetramethyl-5,6,7,8-tetrahydronaphthalen-2-yl)-1,3-oxazol-2-yl]ethyl}phenyl)cyclobutanecarboxamide], in that order: < 0.5 µM and < 5 µM. For `CCCS(=O)(=O)Nc1ccc(CCOC(=O)c2ccc3c(c2)C(C)(C)CCC3(C)C)cc1` [Example 71], in that order: < 0.5 µM and < 5 µM.

For `C=CCNC(=S)Nc1ccc(CCOC(=O)c2ccc3c(c2)C(C)(C)CCC3(C)C)cc1` [Example 78], the inhibitory constant (Ki) is < 0.5 µM (read-out: Ki < 0.5 μM) and < 5 µM (read-out: Ki < 5 μM).

On to `CC1(C)CCC(C)(C)c2cc(C(=O)OCCc3ccc(NC(=O)NC4CC4)cc3)ccc21` [Example 96], for which the Ki is < 0.5 µM (read-out: Ki < 0.5 μM) and < 5 µM (read-out: Ki < 5 μM). Consider `CCC(=O)Nc1ccc(CCOC(=O)c2ccc3c(c2)C(C)(C)CCC3(C)C)cc1` [Example 55], for which the Ki (read-out: Ki < 0.5 μM) was < 0.5 µM and the inhibitory constant (Ki) (read-out: Ki < 5 μM) was < 5 µM. `C=CCNC(=O)Nc1ccc(Cc2noc(-c3cc(C(C)(C)C)cc(C(C)(C)C)c3)n2)cc1` [Example 20]: the Ki reads like this: (read-out: Ki < 0.5 μM) < 0.5 µM; (read-out: Ki < 5 μM) < 5 µM. On the same counts, the results for `CC1(C)CCC(C)(C)c2cc(C(=O)OCCc3ccc(NC(=O)C4CCOC4)cc3)ccc21` (stereo not shown) [Example 92] are < 0.5 µM and < 5 µM. Consider `CCCNC(=O)Nc1ccc(CCOC(=O)c2ccc3c(c2)C(C)(C)CCC3(C)C)cc1` [Example 29, 2-(4-{[(propylamino)carbonyl]amino}phenyl)ethyl 5,5,8,8-tetramethyl-5,6,7,8-tetrahydronaphthalene-2-carboxylate], for which the Ki was < 0.5 µM (read-out: Ki < 0.5 μM) and < 5 µM (read-out: Ki < 5 μM). For `CC1(C)CCC(C)(C)c2cc(C(=O)OCCc3ccc(NC(=O)Cc4ccccc4)cc3)ccc21` [Example 67], in that order: < 0.5 µM and < 5 µM. For `C=CCNC(=O)Nc1ccc(Cc2nnc(-c3cc(C(C)(C)C)cc(C(C)(C)C)c3)o2)cc1` [Example 13], in that order: < 0.5 µM and < 5 µM.

Consider `CC1(C)CCC(C)(C)c2cc(-c3nnc(NCc4ccc(NC(=O)C5CCC5)cc4)o3)ccc21` [Example 25], for which the Ki runs as follows: (read-out: Ki < 0.5 μM) < 0.5 µM; (read-out: Ki < 5 μM) < 5 µM. Turning to `CC1(C)CCC(C)(C)c2cc(-c3nnc(CCc4ccc(NC(=O)C5CCC5)cc4)s3)ccc21` [Example 51], the Ki (read-out: Ki < 0.5 μM) is < 0.5 µM and the Ki (read-out: Ki < 5 μM) was < 5 µM.

The record behind these values is US20100056507A1, “PHENYL DERIVATIVES AND THEIR USE AS A MEDICAMENT” (IPSEN PHARMA S.A.S., priority 2006, published 2010).
